Data from US9823232B2, “Ligand for detection of chromium (III) and a process for the preparation thereof” (COUNCIL OF SCIENTIFIC & INDUSTRIAL RESEARCH, priority 2013, dated 2017).
Entries after “also recorded” stand apart in the source; their conditions may differ.

Tests used:
[1] = aqueous medium at RT; cited from earlier work
[2] = Relative fluorescence quantum yield w.r.t. Rhodamine B; format: physicochemical; settings: with Cr^3+
Procedure: (§1) A stock solution of the receptor L1 (6.9×10^−4 M) was prepared in acetonitrile medium and 57 μL of this stock solution was added to 2.5 ml of 0.4 mM TX100 in Tris-HCL aqueous buffer medium having solution pH 7.2 to make the effective ligand concentration of 1.59×10^−5 M. The solution was used for all the photophysical studies. Cr^3+ stock solution (4.75×10^−3 M) was prepared in pure aqueous medium and was used for all studies. Emission titrations were also performed as a function of [TX100](0.1 mM, 0.23 mM, 0.32 mM, 0.4 mM, 0.6 mM) in Tris-HCl buffer medium of pH 7.2 by monitoring the increase in emission intensity (using λExt=530 nm, λMon=583 nm and slit width 2/2 nm) on binding of L1 to Cr^3+ for optimizing the maximum enhancement of the emission intensity. The relative fluorescence quantum yields (t) were estimated using equation 1 for different concentration of TX100 (0.1 mM, 0.23 mM, 0.32 mM, 0.4 mM, 0.6 mM) in Tris-HCl buffer medium (having solution pH of 7.2) and by using the Rhodamine B (φf=0.3 in aqueous medium at RT) as a reference. φf=φf′(Isample/Istd)(Astd/Asample)(η^2sample/η^2std) Eq. 1 where, φf′ was the absolute quantum yield for the rhodamine B and was used as reference; Isample and Istd are the integrated emission intensities; Asample and Astd are the absorbances at the excitation wavelength, and ηsample and ηstd are the respective refractive indices.

[3] = Selectivity towards various metal ions by absorption and emission spectra
Procedure: To check the selectivity of Receptor L1 towards various metal ions like Li^+, Na^+, K^+, Cs^+, Mg^2+, Ca^2+, Ba^2+, Sr^2+, Zn^2+, Co^3+, Cu^2+, Ni^2+, Fe^2+, Pb^2+, Hg^2+ change in electronic as well as emission spectra were examined in 0.32 mM Triton X 100 in tris (5 mM, 25 mM NaCl) buffer medium at PH 7.2.
However only in presence of Cr^3+, a strong absorption band at 562 nm and intense emission band at 583 nm (for λext=530 nm) are observed. These changes are also associated with simultaneous visually detectable change in solution colour from colourless to pink red.
A solution of the perchlorate salts of the respective ion (Li^+, Na^+, K^+, Cs^+, Ca^2+, Mg^2+, Ba^2+, Sr^2+, Fe^2+, Ni^2+, Co^2+, Cu^2+, Mn^2+, Cd^2+, Pb^2+, Ba^2+, Zn^2+, Sr^2+, Hg^2+ and Cr^3+) and nitrate salts of lanthanides ions (Tb^3+, Ho^3+, Ce^3+, Sm^3+, Rb^+, Pr^3+, Eu^3+, Gd^3+, Nd^3+, Dy^3+, Tm^3+, Er^3+, Yb^3+) in pure aqueous medium were used for all studies. The effective final concentrations of all metal salts were maintained at 1.62×10^−4 M.
A stock solution of the receptor L1 (6.9×10^−4 M) was prepared in acetonitrile medium and 57 μL of this stock solution was added to 2.5 ml of 0.4 mM TX100 in Tris-HCL aqueous buffer medium having solution pH 7.2 to make the effective ligand concentration of 1.59×10^−5 M. The solution was used for all the photophysical studies. […]

[4] = Absorption (UV-Vis) spectral titration with B-H plot in aqueous Triton X 100 / Tris buffer pH 7.2; format: binding
Procedure: (§2) The association constant (Kabs) of 2.4×10^3 M^−1 for the L1-Cr^3+ formation is evaluated from the absorption titration and B-H plot data (FIG. 3). A good linear fit data supported the 1:1 binding stoichiometry. For emission titration, a significant increase in emission intensity at 583 nm is observed with an increase in concentration of Cr^3+ in aqueous medium. […] The 1:1 binding stoichiometry is further confirmed from Jobs plot and presence of signal for m/z at 616.87 (Calc 616.75) in FAB-MS analysis of a mixture of L1 (1.59×10^-5 M) and (9.5×10^−5 M) Cr(ClO4)3 for [L1+Cr^3+].
as §1, with “indices. Computational Methodology:” for “indices.”
(§3) Formation of Cr^3+.L1 was also confirmed from the result “Formation of Cr3+.L1 was also confirmed from the result of FAB MS study. Signal at m/z value of 616.87 (Calc 616.75) for Cr3+.L1”.

[5] = Emission (fluorescence) spectral titration with B-H plot in aqueous Triton X 100 / Tris buffer pH 7.2; format: binding
Procedure: as §2
as §1, with “indices. Computational Methodology:” for “indices.”
as §3
3.28×10^−3 M Cr(III) solution in water is prepared and then it is gradually added to a solution of the ligand L1, where effective ligand concentration is 1.59×10^−5 M in a Tris buffer with solution pH of 7.2 having 0.32 mM Triton X 100. Uv-vis and luminescence spectra are recorded in absence and presence of [Cr(III)]. In emission spectra a 200 fold increase in spectral intensity at 583 nm (λext=530 nm and slit 2/2) is observed, while a simultaneous change in solution colour is observed from colourless to pink red (please refer to FIGS. 4 and 6).

[6] = Uv-vis and emission titrations in acetonitrile medium; format: binding
Procedure: (§4) To envisage the adverse role of high solvation enthalpy of Cr(III) in aqueous medium, similar Uv-vis and emission titrations were carried out in acetonitrile medium using ([Cr(III)]=(0-1.93×10^−4)M; and [L1]=(1.59×10^−5 M) in CH3CN) and the evaluated formation constant for Cr^3+.L1 in acetonitrile was (Ka^Abs=(1.1±0.03)·10^6 M^−1, Ka^Ems=(1.0±0.02)·10^6 M^−1 using λExt: 530 nm and λMon: 583 nm for emission titration). The binding affinity of L1 towards Cr^3+ was evaluated as Ka^ITC=(1.6±0.02)·10^6 M^−1 in acetonitrile medium at 25° C. using ITC experiments. […] Thermodynamic parameters were obtained from ITC studies (ΔG (−(8.48±0.02) kcal mol^−1), ΔH ((−20.8±0.4) kcal mol^−1) and ΔS (−41.4±0.05) cal mol^−1) (all symbols are used according to standard terminology).

[7] = Isothermal Titration Calorimetry (ITC) in acetonitrile at 25° C.; format: binding
Procedure: FIG. 10 depicts Isothermal Titration Calorimetry (ITC) titration profile for the binding of Cr^3+ to receptor L1 at 25° C. in acetonitrile; Top plot: raw data for the sequential 2 μl injection of Cr^3+ (1.2×10^−3 M) into solution of L1 (2.0×10^−4 M) and bottom plot of the heat evolved (kcal per mole) of Cr^3+ added.
5.0 mM Tris-HCl aq. buffer solution was used for maintaining solution pH, unless mentioned otherwise. ESI-MS measurements were performed using a Micromass QTof-Micro instrument. FT-IR spectra were recorded as KBr pellets using a Perkin Elmer Spectra GX 2000 spectrometer. ^1H and ^13C NMR spectra were recorded on Bruker 500 MHz FT NMR (model: Avance-DPX 500). Electronic spectra were recorded with a Varian Cary 500 Scan UV-Vis-NIR Spectrophotometer, Isothermal Titration Calorimetry studies were performed in Microcal iTC200, while emission spectra were recorded using either Edinburgh Instrument Xe-900 Spectrofluorometer or PTI. For all spectroscopic studies in aqueous buffer medium as well as for studies with plant/algal cells, L1 self-assembled inside the miceller structure of TX100 was used, unless mentioned otherwise.
as §4

[8] = predominantly organic medium; cited from earlier work
[9] = [Triton X 100] 0.23 mM, aqueous medium
[10] = [Triton X 100] 0.32 mM, Tris buffer pH 7.2

For `CCN(CC)c1ccc2c(-c3ccccc3C(=O)O)c3ccc(=[N+](CC)CC)cc-3oc2c1.[Cl-]` [Rhodamine B], the “Fluorescence quantum yield φf (reference)” value [1] is given as 0.3.
With `C=CCN(CC=C)CCN1C(=O)c2ccccc2C12c1ccc(N(CC)CC)cc1Oc1cc(N(CC)CC)ccc12` [Ligand L1] the “Quantum yield in water w.r.t. Rhodamine B” value ([2]; [Triton X 100] 0.23 mM) was 0.185, the “Quantum yield in water w.r.t. Rhodamine B” value ([2]; [Triton X 100] 0.32 mM) was 0.211 and the “Quantum yield in water w.r.t. Rhodamine B” value ([2]; [Triton X 100] 0.4 mM) was 0.22. For the same molecule, the “Selectivity for Cr(III) over other metal ions (absorption 562 nm, emission 583 nm, colour)” value ([3]; Triton X 100 in Tris buffer pH 7.2, alkali, alkaline earth and transition metal ions) was “selective/specific for Cr (III); also recorded: no such changes are observed”, the “Interference of Cr(VI)” value ([3]; pure aqueous medium) was “does not have any interferences of Cr(VI) at all” and the “Binding Constant, Uv-Vis Spectroscopic Method” value [4, 9] was 1960 M⁻¹. For the same molecule, the “Binding Constant, Uv-Vis Spectroscopic Method” value [4, 10] was 2400 M⁻¹, the “Binding Constant, Uv-Vis Spectroscopic Method” value ([4]; [Triton X 100] 0.4 mM, aqueous medium) was 3200 M⁻¹ and the “Ka^Abs, binding constant for formation of Cr^3+.L1” value ([4]; aq. buffer medium pH 7.2, absorption titration, B-H plot) was 3.2±0.2)·10^3 M^−1. The “Increase in emission spectral intensity at 583 nm on adding Cr(III)” value ([5]; L1 1.59×10^−5 M, 0.32 mM Triton X 100, Tris pH 7.2, λext 530 nm) was 200 fold, the “Binding Constant, Fluorescence Spectroscopic Method” value [5, 9] was 2000 M⁻¹ and the “Binding Constant, Fluorescence Spectroscopic Method” value [5, 10] was 2830 M⁻¹. For the same molecule, the “Binding Constant, Fluorescence Spectroscopic Method” value ([5]; [Triton X 100] 0.4 mM, Tris pH 7.2) was 3250 M⁻¹, the “Ka^Ems, binding constant for formation of Cr^3+.L1” value ([5]; aq. buffer medium pH 7.2, emission titration, B-H plot) was “(3.3±0.2)·10^3 M^−1” and the “Ka^Abs, formation constant for Cr^3+.L1” value [6] was “(1.1±0.03)·10^6 M^−1”. For the same molecule, the “Ka^Ems, formation constant for Cr^3+.L1” value ([6]; λExt 530 nm, λMon 583 nm) was “(1.0±0.02)·10^6 M^−1”, the “Ka^ITC, binding affinity towards Cr^3+” value [7] was “(1.6±0.02)·10^6 M^−1” and the ΔH of binding ([7]; ITC) was -20.8 ± 0.4 kcal/mol. For the same molecule, the ΔS of binding ([7]; ITC) was -41.4 ± 0.05 cal/(mol·K).
In the case of `O=c1ccc2cc(/N=C/c3c4ccccc4cc4ccccc34)ccc2o1` [Receptors 3], the “Selectivity towards Cr(III)” value [8] is listed as “high selectivity towards Cr(III)”.
